Measurements: US11420966B2 (ACLARIS THERAPEUTICS, INC., priority 2019, dated 2022)
pIC50: −log10 of the molar value.

Tests used:
Tyk-2 = Tyk-2 (Homo sapiens (Human), UniProt P29597); assay: Tyk-2 enzyme activity assay (Thermo Fisher SelectScreen, Z-lyte); format: biochemical; conditions: read-out: Tyk-2 Inhibition IC50
How it was run: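 Z-lyte FRET assay: 3.75–15 ng TYK2 with […] Tyr 03 peptide in HEPES pH 7.0, MgCl2, EGTA, BRIJ-35; 1 h reaction, then development reagent. 11-point dose-response, 2% DMSO; IC50 via 4-parameter fit of emission ratio, background without enzyme.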

[1] = test system: IL-12 stimulated STAT4 phosphorylation on Tyr693 (JAK2/TYK2); assay: JAK2/TYK2 cellular target modulation: IL-12 stimulated phospho-STAT4 in PBMC; format: cell-based; conditions: human PBMC, IL-12 1.7 ng/ml; read-out: IL12-STAT4 IC50
Excerpt: JAK Cellular Target Modulation Assays
Target modulation was based upon the ability of a compound to inhibit JAK isoform specific phosphorylation of selected substrates. IL-2 stimulated STAT5 phosphorylation on Tyr694 was used to assess JAK1/3 compound selectivity. GM-CSF stimulated STAT5 phosphorylation on Tyr694 was used to assess JAK2 compound selectivity. IFNγ stimulated STAT1 phosphorylation on Tyr701 was used to assess JAK1/2 compound selectivity. IL-12 stimulated STAT4 phosphorylation on Tyr693 was used to assess JAK2/TYK2 compound selectivity. For all four assays, human PBMC from frozen stocks were thawed, pelleted, resuspended in complete media (90% RPMI, 10% heat inactivated FBS, 10 mM HEPES, 47 μM 2-ME, pen/strep) and placed in wells of a 96 well V-bottom plate at 200,000 per well in 120 μl complete media. Compounds were added as 15 μl per well of 10× working stock solutions in complete media with 1% DMSO (or medium with 1% DMSO for controls) and placed on a plate shaker in a 37° C. incubator with 5% CO2 for 1 hour with gentle shaking (setting of 3). Stimulation used the addition of soluble cytokines. For the JAK1/3 phospho-STAT5 assay, 15 μl of 10× working stock recombinant human IL-2 was added to a final concentration of 25 ng/ml. For the JAK2 phospho-STAT5 assay, 15 μl of 10× working stock recombinant human GM-CSF was added to a final concentration of 5 ng/ml. For the JAK1/2 phospho-STAT1 assay, 15 μl of 10× working stock of recombinant human IFNγ was added to a final concentration of 10 ng/ml. For the JAK2/TYK2 phospho-STAT4 assay, 15 μl of 10× working stock of recombinant human IL-12 was added to a final concentration of 1.7 ng/ml. Plates were then placed back on the plate shaker in the incubator for an additional 5, 5, 10, and 25 minutes respectively upon which the plates were removed from the incubator, sealed with a plate sealer and the cells pelleted at 400×g for 5 minutes. After pelleting, the media was removed by aspiration and the cells were lysed in assay specific cell lysis buffer. The levels of phospho-STATS were determined using a Phospho (Tyr694) STAT5a,b Whole Cell Lysate kit from Meso Scale Discovery. Levels of phospho-STAT1 were determined using a CST-PathScan Phospho-STAT1 (Tyr701) Sandwich ELISA kit. Levels of phospho-STAT4 were determined using a Phospho-STAT4 (Tyr693) Whole Cell Lysate kit from Meso Scale Discovery.

JAK3 (a.a. 781-1124) = JAK3 (a.a. 781-1124) (Homo sapiens (Human), UniProt P52333); assay: JAK3 enzyme activity assay (SRCtide phosphorylation, Caliper); format: biochemical; conditions: 1 uM ATP; read-out: JAK3 Inhibition IC50
JAK2 = JAK2 (Homo sapiens (Human), UniProt O60674); assay: JAK2 enzyme activity assay (Thermo Fisher SelectScreen, Z-lyte); format: biochemical; conditions: read-out: JAK2 Inhibition IC50
How it was run: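 Z-lyte FRET kinase assay: 0.12-0.5 ng JAK2 with […] Tyr 06 peptide in 50 mM HEPES pH 7.5, 0.01% BRIJ-35, 10 mM MgCl2, 1 mM EGTA, 1 h reaction before development reagent. 11-point dose-response from […] to 0.34 nM, 2% DMSO; IC50 from 4-parameter fit of emission ratio.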

[2] = test system: IL-2 stimulated STAT5 phosphorylation on Tyr694 (JAK1/3); assay: JAK1/3 cellular target modulation: IL-2 stimulated phospho-STAT5 in PBMC; format: cell-based; conditions: human PBMC, IL-2 25 ng/ml; read-out: IL2-STAT5 IC50
How it was run: (§1)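 Thawed human PBMC (200,000/well, RPMI/10% FBS) were preincubated with compound for 1 h at 37 °C, added from 10× stocks in 1% DMSO. Stimulation and read-out: IL-2 25 ng/ml, 5 min, pSTAT5 by MSD; IL-12 1.7 ng/ml, 25 min, pSTAT4 by MSD; IFNγ 10 ng/ml, 10 min, pSTAT1 by sandwich ELISA.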

JAK1 = JAK1 (Homo sapiens (Human), UniProt P23458); assay: JAK1 enzyme activity assay (Thermo Fisher SelectScreen, Z-lyte); format: biochemical; conditions: read-out: JAK1 Inhibition IC50
How it was run: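 Z-lyte assay with 21.2-91.5 ng JAK and […] Tyr 06 in 50 mM HEPES pH 7.0, 10 mM MgCl2, 1 mM EGTA, 0.01% BRIJ-35; 1 h kinase reaction, then development reagent. 11-point dose-response from […] to 0.34 nM, 2% DMSO vehicle; IC50 from 4-parameter logistic fit of emission ratio.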

[3] = test system: IFNγ stimulated STAT1 phosphorylation on Tyr701 (JAK1/2); assay: JAK1/2 cellular target modulation: IFNγ stimulated phospho-STAT1 in PBMC; format: cell-based; conditions: human PBMC, IFNγ 10 ng/ml; read-out: Infγ-STAT1 IC50
How it was run: as §1

JAK2, sequence (O60674 whole entry): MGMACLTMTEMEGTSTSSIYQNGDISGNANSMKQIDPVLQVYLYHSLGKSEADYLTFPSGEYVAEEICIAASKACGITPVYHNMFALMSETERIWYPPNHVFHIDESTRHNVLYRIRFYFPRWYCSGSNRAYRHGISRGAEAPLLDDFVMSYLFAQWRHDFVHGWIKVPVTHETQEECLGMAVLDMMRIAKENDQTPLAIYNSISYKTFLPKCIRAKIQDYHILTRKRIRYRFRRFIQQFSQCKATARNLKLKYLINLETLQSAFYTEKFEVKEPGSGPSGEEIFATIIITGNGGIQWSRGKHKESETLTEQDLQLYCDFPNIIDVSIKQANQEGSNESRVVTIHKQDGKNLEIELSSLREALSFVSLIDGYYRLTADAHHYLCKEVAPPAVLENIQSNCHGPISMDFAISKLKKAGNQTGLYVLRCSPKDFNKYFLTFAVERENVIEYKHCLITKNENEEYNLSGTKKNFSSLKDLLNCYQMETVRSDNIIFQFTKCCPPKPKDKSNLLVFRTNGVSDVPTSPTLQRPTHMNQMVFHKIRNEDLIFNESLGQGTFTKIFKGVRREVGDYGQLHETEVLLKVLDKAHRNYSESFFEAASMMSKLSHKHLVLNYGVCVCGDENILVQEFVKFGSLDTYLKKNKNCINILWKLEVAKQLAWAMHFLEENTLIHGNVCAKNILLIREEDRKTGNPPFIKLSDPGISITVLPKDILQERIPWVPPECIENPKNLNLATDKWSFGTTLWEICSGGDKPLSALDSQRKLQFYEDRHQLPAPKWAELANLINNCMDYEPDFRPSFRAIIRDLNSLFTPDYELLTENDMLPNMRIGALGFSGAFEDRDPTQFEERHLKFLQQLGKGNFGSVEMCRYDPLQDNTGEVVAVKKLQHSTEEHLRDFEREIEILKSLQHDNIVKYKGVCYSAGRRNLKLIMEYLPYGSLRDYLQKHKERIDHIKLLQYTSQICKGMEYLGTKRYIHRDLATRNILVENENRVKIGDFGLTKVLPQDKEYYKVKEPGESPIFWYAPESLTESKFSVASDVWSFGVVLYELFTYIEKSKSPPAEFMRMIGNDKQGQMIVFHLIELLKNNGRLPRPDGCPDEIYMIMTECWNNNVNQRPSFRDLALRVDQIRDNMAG
Tyk-2, sequence (P29597 whole entry): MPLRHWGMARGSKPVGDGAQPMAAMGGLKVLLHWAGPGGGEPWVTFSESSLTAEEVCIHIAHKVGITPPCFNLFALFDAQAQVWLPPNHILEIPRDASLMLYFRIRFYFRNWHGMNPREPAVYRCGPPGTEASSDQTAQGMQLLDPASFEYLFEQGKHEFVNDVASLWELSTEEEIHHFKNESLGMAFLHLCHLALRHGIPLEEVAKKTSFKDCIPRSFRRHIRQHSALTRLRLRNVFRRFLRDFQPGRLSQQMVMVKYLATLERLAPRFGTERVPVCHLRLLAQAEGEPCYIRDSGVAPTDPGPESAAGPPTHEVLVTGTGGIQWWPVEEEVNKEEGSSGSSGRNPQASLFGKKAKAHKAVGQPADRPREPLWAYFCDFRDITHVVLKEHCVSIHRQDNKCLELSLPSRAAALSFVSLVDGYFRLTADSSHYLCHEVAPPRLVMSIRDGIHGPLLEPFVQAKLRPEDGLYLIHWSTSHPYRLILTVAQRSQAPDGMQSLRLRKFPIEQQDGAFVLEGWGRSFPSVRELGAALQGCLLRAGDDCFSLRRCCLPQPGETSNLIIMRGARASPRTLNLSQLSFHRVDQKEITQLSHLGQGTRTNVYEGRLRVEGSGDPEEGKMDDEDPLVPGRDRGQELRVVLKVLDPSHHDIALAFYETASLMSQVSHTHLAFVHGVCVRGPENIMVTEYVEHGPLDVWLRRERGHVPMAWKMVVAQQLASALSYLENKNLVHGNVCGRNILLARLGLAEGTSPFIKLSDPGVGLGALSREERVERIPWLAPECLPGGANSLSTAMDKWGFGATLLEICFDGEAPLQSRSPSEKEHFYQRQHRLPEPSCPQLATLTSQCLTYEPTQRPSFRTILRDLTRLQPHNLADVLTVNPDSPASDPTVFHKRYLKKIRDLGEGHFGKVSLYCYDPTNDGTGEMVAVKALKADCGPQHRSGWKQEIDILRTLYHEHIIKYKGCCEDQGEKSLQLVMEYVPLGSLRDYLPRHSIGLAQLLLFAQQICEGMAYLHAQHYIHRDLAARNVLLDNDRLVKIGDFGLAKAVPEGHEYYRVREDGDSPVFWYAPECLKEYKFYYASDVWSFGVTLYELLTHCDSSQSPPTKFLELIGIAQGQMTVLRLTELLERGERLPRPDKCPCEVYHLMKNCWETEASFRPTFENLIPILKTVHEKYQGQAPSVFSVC
JAK1, sequence (P23458 whole entry): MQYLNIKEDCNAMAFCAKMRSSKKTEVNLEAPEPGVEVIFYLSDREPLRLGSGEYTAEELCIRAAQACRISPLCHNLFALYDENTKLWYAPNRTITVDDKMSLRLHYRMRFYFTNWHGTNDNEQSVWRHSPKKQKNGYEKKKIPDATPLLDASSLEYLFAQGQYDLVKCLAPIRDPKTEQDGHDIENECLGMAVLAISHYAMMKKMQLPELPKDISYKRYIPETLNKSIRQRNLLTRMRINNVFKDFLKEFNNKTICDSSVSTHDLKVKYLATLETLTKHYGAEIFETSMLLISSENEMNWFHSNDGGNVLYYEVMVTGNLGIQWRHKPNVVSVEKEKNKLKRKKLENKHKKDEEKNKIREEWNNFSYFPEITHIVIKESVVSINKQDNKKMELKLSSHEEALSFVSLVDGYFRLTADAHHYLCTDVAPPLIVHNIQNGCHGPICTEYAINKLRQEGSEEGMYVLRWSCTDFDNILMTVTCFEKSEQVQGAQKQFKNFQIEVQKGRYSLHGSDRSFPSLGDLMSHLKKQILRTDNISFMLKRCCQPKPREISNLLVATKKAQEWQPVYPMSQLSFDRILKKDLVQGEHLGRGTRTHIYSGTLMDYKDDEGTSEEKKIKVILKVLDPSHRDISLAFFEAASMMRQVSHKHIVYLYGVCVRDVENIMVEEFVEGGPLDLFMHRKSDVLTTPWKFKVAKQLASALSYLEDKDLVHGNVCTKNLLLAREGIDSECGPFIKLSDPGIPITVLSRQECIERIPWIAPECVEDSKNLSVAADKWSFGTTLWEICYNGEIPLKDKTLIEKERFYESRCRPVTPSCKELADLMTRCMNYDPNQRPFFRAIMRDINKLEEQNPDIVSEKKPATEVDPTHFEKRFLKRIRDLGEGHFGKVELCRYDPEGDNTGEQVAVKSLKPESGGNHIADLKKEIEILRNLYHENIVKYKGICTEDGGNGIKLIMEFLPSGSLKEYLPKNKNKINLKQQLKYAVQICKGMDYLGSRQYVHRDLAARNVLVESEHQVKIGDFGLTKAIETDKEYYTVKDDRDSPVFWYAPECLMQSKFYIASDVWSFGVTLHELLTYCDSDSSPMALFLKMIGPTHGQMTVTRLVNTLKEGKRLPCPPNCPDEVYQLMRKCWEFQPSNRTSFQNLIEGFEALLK
JAK3 (a.a. 781-1124), sequence (P52333 781-1124): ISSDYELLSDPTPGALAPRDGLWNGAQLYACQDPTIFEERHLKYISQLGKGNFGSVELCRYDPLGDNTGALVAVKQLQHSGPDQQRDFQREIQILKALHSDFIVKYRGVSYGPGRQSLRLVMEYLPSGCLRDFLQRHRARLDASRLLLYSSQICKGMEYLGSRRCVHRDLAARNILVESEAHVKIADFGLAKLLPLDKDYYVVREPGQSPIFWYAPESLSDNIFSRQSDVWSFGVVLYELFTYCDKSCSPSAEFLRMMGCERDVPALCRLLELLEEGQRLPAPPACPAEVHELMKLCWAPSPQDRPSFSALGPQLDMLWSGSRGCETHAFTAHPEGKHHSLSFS

Structure (SMILES)	pIC50 (Tyk-2)	pIC50 [1]	pIC50 (JAK3 (a.a. 781-1124))	pIC50 (JAK2)	pIC50 [2]	pIC50 (JAK1)	pIC50 [3]
Cc1cc(-c2cnc3[nH]ccc3c2N[C@@H]2CCCN(C(=O)CC#N)C2)[nH]n1 [Example 26, (R)-3-(3-((5-(3-methyl-1H-pyrazol-5-yl)-1H-pyrrolo[2,3-b]pyridin-4-yl)amino)piperidin-1-yl)-3-oxopropanenitrile]	7.00 to 8.00	< 6.00	7.00 to 8.00	7.00 to 8.00	≥ 7.00	≥ 8.00	6.00 to 7.00
N#CCCN1CCC[C@@H](Nc2c(-c3ncco3)cnc3[nH]ccc23)C1 [Example 27, (R)-3-(3-((5-(oxazol-2-yl)-1H-pyrrolo[2,3-b]pyridin-4-yl)amino)piperidin-1-yl)propanenitrile]	6.00 to 7.00	< 6.00	≥ 8.00	7.00 to 8.00	6.00 to 7.00	7.00 to 8.00	< 6.00
C[C@H]1CC[C@@H](Nc2c(-c3ncco3)cnc3[nH]ccc23)CN1C(=O)CC#N [Example 28, 3-((2S,5R)-2-methyl-5-((5-(oxazol-2-yl)-1H-pyrrolo[2,3-b]pyridin-4-yl)amino)piperidin-1-yl)-3-oxopropanenitrile]	≥ 8.00	6.00 to 7.00	≥ 8.00	≥ 8.00	≥ 7.00	≥ 8.00	≥ 7.00
NC(=O)c1coc(-c2cnc3[nH]ccc3c2N[C@H]2CC[C@@H](O)C2)n1 [Example 29, 2-(4-(((1S,3R)-3-hydroxycyclopentyl)amino)-1H-pyrrolo[2,3-b]pyridin-5-yl)oxazole-4-carboxamide]	6.00 to 7.00	< 6.00	≥ 8.00	7.00 to 8.00	≥ 7.00	7.00 to 8.00	6.00 to 7.00
CNC(=O)c1coc(-c2cnc3[nH]ccc3c2N[C@@H]2CC[C@H](C)N(C(=O)CC#N)C2)n1 [Example 30, 2-(4-(((3R,6S)-1-(2-cyanoacetyl)-6-methylpiperidin-3-yl)amino)-1H-pyrrolo[2,3-b]pyridin-5-yl)-N-methyloxazole-4-carboxamide]	≥ 8.00	< 6.00	6.00 to 7.00	≥ 8.00	6.00 to 7.00	≥ 8.00	6.00 to 7.00
CNC(=O)c1coc(-c2cnc3[nH]ccc3c2N[C@@H]2CCCN(C(=O)CC#N)C2)n1 [Example 33, (R)-2-(4-((1-(2-cyanoacetyl)piperidin-3-yl)amino)-1H-pyrrolo[2,3-b]pyridin-5-yl)-N-methyloxazole-4-carboxamide]	7.00 to 8.00	< 6.00	≥ 8.00	7.00 to 8.00	≥ 7.00	≥ 8.00	6.00 to 7.00
CN(C)C(=O)c1coc(-c2cnc3[nH]ccc3c2N[C@@H]2CCCN(C(=O)CC#N)C2)n1 [Example 34, (R)-2-(4-((1-(2-cyanoacetyl)piperidin-3-yl)amino)-1H-pyrrolo[2,3-b]pyridin-5-yl)-N,N-dimethyl-oxazole-4-carboxamide]	7.00 to 8.00	< 6.00	≥ 8.00	7.00 to 8.00	6.00 to 7.00	≥ 8.00	6.00 to 7.00
